The numbers were not newly measured in patent US20140342022A1, “Natural Product Against Fatigue” (priority 2013, published 2014), which cites them from elsewhere.

The series concerns EBV-EA activation. Particulars: latently infected cells.

Consider `O=c1c(O)c(-c2ccc(O)c(O)c2)oc2cc(O)cc(O)c12` [quercetin], for which the EBV-EA activation result is “inhibits”.
